Measurements from PubChem BioAssay (NCI).
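Assay format: 96-well plates, 48-hour exposure. Here, GI50 denotes the concentration required for 50% inhibition of growth. TGI marks complete inhibition of growth.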

Columns and labels:
Assay in all cases: DTP human tumour cell line panel, 48 h
786-0 renal = tested on: 786-0 renal
A498 renal = tested on: A498 renal
A549 NSCLC = tested on: A549 NSCLC
ACHN renal = tested on: ACHN renal
BT-549 breast = tested on: BT-549 breast
CAKI-1 renal = tested on: CAKI-1 renal
CCRF-CEM leukemia = tested on: CCRF-CEM leukemia
COLO 205 colon = tested on: COLO 205 colon
DU-145 prostate = tested on: DU-145 prostate
EKVX NSCLC = tested on: EKVX NSCLC
HCC-2998 colon = tested on: HCC-2998 colon
HCT-116 colon = tested on: HCT-116 colon
HCT-15 colon = tested on: HCT-15 colon
HL-60(TB) leukemia = tested on: HL-60(TB) leukemia
HOP-62 NSCLC = tested on: HOP-62 NSCLC
HOP-92 NSCLC = tested on: HOP-92 NSCLC
HS 578T breast = tested on: HS 578T breast
HT29 colon = tested on: HT29 colon
IGROV1 ovarian = tested on: IGROV1 ovarian
KM12 colon = tested on: KM12 colon
LOX IMVI melanoma = tested on: LOX IMVI melanoma
M14 melanoma = tested on: M14 melanoma
MALME-3M melanoma = tested on: MALME-3M melanoma
MCF7 breast = tested on: MCF7 breast
MDA-MB-231 breast = tested on: MDA-MB-231 breast
MDA-MB-435 = tested on: MDA-MB-435
MOLT-4 leukemia = tested on: MOLT-4 leukemia
NCI-H226 lung = tested on: NCI-H226 lung
NCI-H460 lung = tested on: NCI-H460 lung
NCI-H522 lung = tested on: NCI-H522 lung
OVCAR-3 ovarian = tested on: OVCAR-3 ovarian
OVCAR-4 ovarian = tested on: OVCAR-4 ovarian
OVCAR-5 ovarian = tested on: OVCAR-5 ovarian
PC-3 prostate = tested on: PC-3 prostate
RPMI-8226 leukemia = tested on: RPMI-8226 leukemia
RXF 393 renal = tested on: RXF 393 renal
SF-268 CNS = tested on: SF-268 CNS
SF-295 CNS = tested on: SF-295 CNS
SF-539 CNS = tested on: SF-539 CNS
SK-MEL-2 melanoma = tested on: SK-MEL-2 melanoma
SK-MEL-28 melanoma = tested on: SK-MEL-28 melanoma
SK-MEL-5 melanoma = tested on: SK-MEL-5 melanoma
SK-OV-3 ovarian = tested on: SK-OV-3 ovarian
SN12C renal = tested on: SN12C renal
SNB-19 CNS = tested on: SNB-19 CNS
SNB-75 CNS = tested on: SNB-75 CNS
SR leukemia = tested on: SR leukemia
SW-620 colon = tested on: SW-620 colon
T-47D breast = tested on: T-47D breast
TK-10 renal = tested on: TK-10 renal
U251 CNS = tested on: U251 CNS
UACC-257 melanoma = tested on: UACC-257 melanoma
UACC-62 melanoma = tested on: UACC-62 melanoma
UO-31 renal = tested on: UO-31 renal

CCN(CC)c1ccc(NC2=C(Cl)C(=O)c3nc(C)ccc3C2=O)cc1
GI50 (786-0 renal): 1.87 µM | TGI (786-0 renal): 3.55 µM | GI50 (A498 renal): 11.9 µM | TGI (A498 renal): 24.5 µM | GI50 (A549 NSCLC): 2.61 µM | TGI (A549 NSCLC): 7.05 µM | GI50 (ACHN renal): 1.93 µM | TGI (ACHN renal): 3.43 µM | GI50 (BT-549 breast): 1.58 µM | TGI (BT-549 breast): 2.96 µM | GI50 (CAKI-1 renal): 1.61 µM | TGI (CAKI-1 renal): 3.16 µM | GI50 (CCRF-CEM leukemia): 2.27 µM | TGI (CCRF-CEM leukemia): 6.43 µM | GI50 (COLO 205 colon): 1.92 µM | TGI (COLO 205 colon): 3.82 µM | GI50 (DU-145 prostate): 1.93 µM | TGI (DU-145 prostate): 3.51 µM | GI50 (EKVX NSCLC): 1.59 µM | TGI (EKVX NSCLC): 3.33 µM | GI50 (HCC-2998 colon): 1.89 µM | TGI (HCC-2998 colon): 3.55 µM | GI50 (HCT-116 colon): 1.75 µM | TGI (HCT-116 colon): 3.63 µM | GI50 (HCT-15 colon): 1.63 µM | TGI (HCT-15 colon): 3.34 µM | GI50 (HL-60(TB) leukemia): 1.55 µM | TGI (HL-60(TB) leukemia): 4.1 µM | GI50 (HOP-62 NSCLC): 3.21 µM | TGI (HOP-62 NSCLC): 12.2 µM | GI50 (HOP-92 NSCLC): 1.71 µM | TGI (HOP-92 NSCLC): 3.41 µM | GI50 (HS 578T breast): 2.38 µM | TGI (HS 578T breast): 6.37 µM | GI50 (HT29 colon): 2.66 µM | TGI (HT29 colon): 6.76 µM | GI50 (IGROV1 ovarian): 2.11 µM | TGI (IGROV1 ovarian): 4.31 µM | GI50 (KM12 colon): 2.42 µM | TGI (KM12 colon): 5.88 µM | GI50 (LOX IMVI melanoma): 1.67 µM | TGI (LOX IMVI melanoma): 3.5 µM | GI50 (M14 melanoma): 1.73 µM | TGI (M14 melanoma): 3.3 µM | GI50 (MALME-3M melanoma): 2.18 µM | TGI (MALME-3M melanoma): 4.13 µM | GI50 (MCF7 breast): 1.94 µM | TGI (MCF7 breast): 5.04 µM | GI50 (MDA-MB-231 breast): 1.89 µM | TGI (MDA-MB-231 breast): 3.69 µM | GI50 (MDA-MB-435): 1.99 µM | TGI (MDA-MB-435): 3.87 µM | GI50 (MOLT-4 leukemia): 1.91 µM | TGI (MOLT-4 leukemia): 5.43 µM | GI50 (NCI-H226 lung): 2.27 µM | TGI (NCI-H226 lung): 5.6 µM | GI50 (NCI-H460 lung): 5.38 µM | TGI (NCI-H460 lung): 23.2 µM | GI50 (NCI-H522 lung): 1.81 µM | TGI (NCI-H522 lung): 3.92 µM | GI50 (OVCAR-3 ovarian): 1.81 µM | TGI (OVCAR-3 ovarian): 3.3 µM | GI50 (OVCAR-4 ovarian): 1.82 µM | TGI (OVCAR-4 ovarian): 3.52 µM | GI50 (OVCAR-5 ovarian): 2.12 µM | TGI (OVCAR-5 ovarian): 4.1 µM | GI50 (PC-3 prostate): 1.8 µM | TGI (PC-3 prostate): 3.66 µM | GI50 (RPMI-8226 leukemia): 2.52 µM | TGI (RPMI-8226 leukemia): 6.29 µM | GI50 (RXF 393 renal): 1.63 µM | TGI (RXF 393 renal): 3.02 µM | GI50 (SF-268 CNS): 1.8 µM | TGI (SF-268 CNS): 3.53 µM | GI50 (SF-295 CNS): 1.97 µM | TGI (SF-295 CNS): 4.23 µM | GI50 (SF-539 CNS): 1.82 µM | TGI (SF-539 CNS): 3.38 µM | GI50 (SK-MEL-2 melanoma): 1.85 µM | TGI (SK-MEL-2 melanoma): 3.48 µM | GI50 (SK-MEL-28 melanoma): 2.04 µM | TGI (SK-MEL-28 melanoma): 3.68 µM | GI50 (SK-MEL-5 melanoma): 1.75 µM | TGI (SK-MEL-5 melanoma): 3.22 µM | GI50 (SK-OV-3 ovarian): 2.2 µM | TGI (SK-OV-3 ovarian): 6.57 µM | GI50 (SN12C renal): 1.95 µM | TGI (SN12C renal): 4.35 µM | GI50 (SNB-19 CNS): 1.77 µM | TGI (SNB-19 CNS): 3.35 µM | GI50 (SNB-75 CNS): 1.98 µM | TGI (SNB-75 CNS): 5.03 µM | GI50 (SR leukemia): 0.643 µM | TGI (SR leukemia): 3.67 µM | GI50 (SW-620 colon): 2.18 µM | TGI (SW-620 colon): 4.74 µM | GI50 (T-47D breast): 1.96 µM | TGI (T-47D breast): 5.46 µM | GI50 (TK-10 renal): 2.05 µM | TGI (TK-10 renal): 3.51 µM | GI50 (U251 CNS): 1.87 µM | TGI (U251 CNS): 3.57 µM | GI50 (UACC-257 melanoma): 1.6 µM | TGI (UACC-257 melanoma): 3 µM | GI50 (UACC-62 melanoma): 1.63 µM | TGI (UACC-62 melanoma): 3.13 µM | GI50 (UO-31 renal): 1.54 µM | TGI (UO-31 renal): 2.93 µM
